Data as given in US4382934A, “Isatin derivatives, processes for the preparation thereof and pharmaceutical composition comprising the same” (Fujisawa Pharmaceutical Co., Ltd., priority 1978, dated 1983).

Test system: anaphylactic asthma in guinea-pigs
Assay: Antagonism to anaphylactic asthma in guinea-pigs
Type: in vivo, guinea-pig (male Hartley)
Conditions: 30 min before egg albumin aerosol; for Inhibitory effect of anaphylactic asthma in guinea-pig: survival more than 2 hours
Experimental: (1) Preparation of rabbit antiserum against egg albumin
Equal volumes of a saline solution of egg albumin (200 mg./ml.) and of Freund's Complete Ajuvant were mixed and emulsified. Each male New Zealand white strain rabbits, each weighing 2 to 2.5 kg., received an intramuscular injection of 0.5 ml. of the emulsion in the left and right thigh regions. One week later, they received an intradermal injection of 0.25 ml. of a saline solution of egg albumin (concentration: 20 mg./ml.) in the different four sites of the dorsal skin surface three times every other week. Blood samples were collected from the carotid artery one week after the last injection.
(2) Determination of Passive Cutaneous Anaphylaxis (PCA) titer
The level of anaphylactic anti-egg albumin antibodies in pools of sera were determined by passive cutaneous anaphylaxis (PCA) reactions using shaven Hartley strain test guinea-pigs.
Antiserum was serially diluted (two fold) in saline and 0.1 ml. of each antiserum dilution were injected intradermally into the dorsal skin surface of the test guinea-pigs. 24 Hours after intradermal sensitization,Egg albumin-specific PCA reactions were elicited by intravenous injection of 10 mg. of egg albumin in 1 ml. of 1% Evans blue dye dissolved in saline. Reactions were read and recorded as the highest dilution of serum evoking threshold PCA reactivity (5 mm diameter).
(3) Antagonism to anaphylactic asthma in guinea-pigs
Male Hartley stain guinea-pigs, weighing 305 to 400 g, were used. Animals were sensitized by an intravenous injection of rabbit antiserum against egg albumin (4000 PCA titer) with 0.5 ml./animal. After 24 hours, animals were placed individually in a plastic chamber of 5.3 liter volume. An aerosol of 5% egg albumin solution was sprayed in the chamber at a rate of 0.16 ml./min with a commercial nebulizer. The test compound was given to the animals orally 30 minutes before the challenge with the egg albumin solution. Each dose group consisted of ten animals. The inhibitory effect of the test compound was determined from the number of surviving animals more than 2 hours after spray of the antigen. The ED50 value (dose to be required 50% protection from death) was calculated according to Litchfield-Wilcoxon method.

SMILES: O=C1C(=O)N(CCCN2CCN(C(c3ccccc3)c3ccccc3)CC2)c2ccccc21 [1-[3-(4-Benzhydryl-1-piperazinyl)propyl]isatin]
- Inhibitory effect of anaphylactic asthma in guinea-pig (0.1 mg./kg. P.O.): 0%
- Inhibitory effect of anaphylactic asthma in guinea-pig (1.0 mg./kg. P.O.): 20%
- Inhibitory effect of anaphylactic asthma in guinea-pig (3.2 mg./kg. P.O.): 40%
- Inhibitory effect of anaphylactic asthma in guinea-pig (10.0 mg./kg. P.O.): 80%
- Inhibitory effect of anaphylactic asthma in guinea-pig (32.0 mg./kg. P.O.): 100%
- Inhibitory effect of anaphylactic asthma in guinea-pig (100.0 mg./kg. P.O.): 100%
- ED50 (Cavia porcellus, po, 2 h, P.O., Litchfield-Wilcoxon method, read-out: ED50 (dose to be required 50% protection from death)): 3.4 mg/kg
